# Laboratory results published in patent US5202315A, “Cephalosporin compounds” (Lucky, Ltd., priority 1989, dated 1993).
# Columns and labels:
# Type in all cases: cell-based
# [1] = tested on: Acinetobacter calcoaceticus ATCC 15473; test: Antibacterial activity, MIC; settings: ATCC15473, ATCC 15473, agar two-fold dilution, 37° C., 20 hours, read-out: MIC
# Procedure, shortened: (§1)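 Agar two-fold dilution method: compound serially diluted two-fold in Mueller-Hinton agar, spotted with 2 μl of a 10^7 CFU/ml inoculum of each standard strain, then incubated at 37 °C for 20 h.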
# [2] = tested on: Bacillus cereus ATCC 11778; test: Antibacterial activity, MIC; settings: ATCC11778, ATCC 11778, agar two-fold dilution, 37° C., 20 hours, read-out: MIC
# Procedure, shortened: as §1
# [3] = tested on: Bacillus megaterium ATCC 9885; test: Antibacterial activity, MIC; settings: Priestia megaterium, ATCC9885; ATCC 9885; agar two-fold dilution, 37° C., 20 hours; read-out: MIC
# Procedure, shortened: as §1
# [4] = tested on: Citrobacter freundii ATCC 8090; test: Antibacterial activity, MIC; settings: ATCC8090, ATCC 8090, agar two-fold dilution, 37° C., 20 hours, read-out: MIC
# Procedure, shortened: as §1
# [5] = tested on: Enterobacter aerogenes ATCC 29751; test: Antibacterial activity, MIC; settings: Klebsiella aerogenes, ATCC29751; ATCC 29751; agar two-fold dilution, 37° C., 20 hours; read-out: MIC
# Procedure, shortened: as §1
# [6] = tested on: Enterobacter cloacae ATCC 27508; test: Antibacterial activity, MIC; settings: ATCC27508, ATCC 27508, agar two-fold dilution, 37° C., 20 hours, read-out: MIC
# Procedure, shortened: as §1
# [7] = tested on: Escherichia coli ATCC 10536; test: Antibacterial activity, MIC; settings: ATCC10536, agar two-fold dilution, 37° C., 20 hours
# Procedure, shortened: as §1
# [8] = tested on: Escherichia coli ATCC 25922; test: Antibacterial activity, MIC; settings: ATCC25922, agar two-fold dilution, 37° C., 20 hours
# Procedure, shortened: as §1
# [9] = tested on: Klebsiella pneumoniae ATCC 10031; test: Antibacterial activity, MIC; settings: ATCC10031, ATCC 10031, agar two-fold dilution, 37° C., 20 hours, read-out: MIC
# Procedure, shortened: as §1
# [10] = tested on: Micrococcus luteus ATCC 9341; test: Antibacterial activity, MIC; settings: ATCC9341, ATCC 9341, agar two-fold dilution, 37° C., 20 hours, read-out: MIC
# Procedure, shortened: as §1
# [11] = tested on: Morganella morganii ATCC 8076h; test: Antibacterial activity, MIC; settings: ATCC8076H, agar two-fold dilution, 37° C., 20 hours
# Procedure, shortened: as §1
# [12] = tested on: Proteus mirabilis ATCC 25933; test: Antibacterial activity, MIC; settings: ATCC25933, ATCC 25933, agar two-fold dilution, 37° C., 20 hours, read-out: MIC
# Procedure, shortened: as §1
# [13] = tested on: Proteus vulgaris ATCC 6059; test: Antibacterial activity, MIC; settings: ATCC6059, ATCC 6059, agar two-fold dilution, 37° C., 20 hours, read-out: MIC
# Procedure, shortened: as §1
# [14] = tested on: Providencia rettgeri ATCC 9250; test: Antibacterial activity, MIC; settings: ATCC9250, agar two-fold dilution, 37° C., 20 hours
# Procedure, shortened: as §1
# [15] = tested on: Pseudomonas aeruginosa ATCC 10145; test: Antibacterial activity, MIC; settings: ATCC10145, ATCC 10145, agar two-fold dilution, 37° C., 20 hours, read-out: MIC
# Procedure, shortened: as §1
# [16] = tested on: Pseudomonas aeruginosa ATCC 25619; test: Antibacterial activity, MIC; settings: ATCC25619, ATCC 25619, agar two-fold dilution, 37° C., 20 hours, read-out: MIC
# Procedure, shortened: as §1
# [17] = tested on: Pseudomonas aeruginosa ATCC 27853; test: Antibacterial activity, MIC; settings: ATCC27853, ATCC 27853, agar two-fold dilution, 37° C., 20 hours, read-out: MIC
# Procedure, shortened: as §1
# [18] = tested on: Salmonella typhimurium ATCC 14028; test: Antibacterial activity, MIC; settings: Salmonella enterica; ATCC 14028; agar two-fold dilution, 37° C., 20 hours; read-out: MIC
# Procedure, shortened: as §1
# [19] = tested on: Serratia marcescens ATCC 27117; test: Antibacterial activity, MIC; settings: ATCC27117, ATCC 27117, agar two-fold dilution, 37° C., 20 hours, read-out: MIC
# Procedure, shortened: as §1
# [20] = tested on: Shigella flexneri ATCC 11836; test: Antibacterial activity, MIC; settings: ATCC11836, agar two-fold dilution, 37° C., 20 hours
# Procedure, shortened: as §1
# [21] = tested on: Shigella sonnei ATCC 11060; test: Antibacterial activity, MIC; settings: ATCC11060, ATCC 11060, agar two-fold dilution, 37° C., 20 hours, read-out: MIC
# Procedure, shortened: as §1
# [22] = tested on: Staphylococcus aureus ATCC 10537; test: Antibacterial activity, MIC; settings: ATCC10537, ATCC 10537, agar two-fold dilution, 37° C., 20 hours, read-out: MIC
# Procedure, shortened: as §1
# [23] = tested on: Staphylococcus aureus ATCC 6538p; test: Antibacterial activity, MIC; settings: ATCC6538P, ATCC 6538p, agar two-fold dilution, 37° C., 20 hours, read-out: MIC
# Procedure, shortened: as §1
# [24] = tested on: Staphylococcus epidermidis ATCC 12228; test: Antibacterial activity, MIC; settings: ATCC12228, ATCC 12228, agar two-fold dilution, 37° C., 20 hours, read-out: MIC
# Procedure, shortened: as §1
# [25] = tested on: Streptococcus faecalis ATCC 29212; test: Antibacterial activity, MIC; settings: Enterococcus faecalis, ATCC29212; ATCC 29212; agar two-fold dilution, 37° C., 20 hours; read-out: MIC
# Procedure, shortened: as §1
# [26] = tested on: Escherichia coli; test: Antibacterial activity against clinically isolated strains, MIC; settings: 38 clinical isolates, broth microdilution test
# [27] = tested on: Klebsiella pneumoniae; test: as above; settings: 10 clinical isolates, broth microdilution test; for MIC90: read-out: MIC 90%
# [28] = tested on: Staphylococcus aureus methicillin susceptible; test: as above; settings: methicillin susceptible, 42 clinical isolates, broth microdilution test; for MIC90: read-out: MIC 90%
# [29] = tested on: Staphylococcus aureus methicillin resistant; test: as above; settings: methicillin resistant, 7 clinical isolates, broth microdilution test; for MIC90: read-out: MIC 90%
# [30] = tested on: Pseudomonas aeruginosa; test: as above; settings: 54 clinical isolates, broth microdilution test; for MIC90: read-out: MIC 90%
Structure (SMILES),MIC [1] [µg/mL],MIC [2] [µg/mL],MIC [3] [µg/mL],MIC [4] [µg/mL],MIC [5] [µg/mL],MIC [6] [µg/mL],MIC [7] [µg/mL],MIC [8] [µg/mL],MIC [9] [µg/mL],MIC [10] [µg/mL],MIC [11] [µg/mL],MIC [12] [µg/mL],MIC [13] [µg/mL],MIC [14] [µg/mL],MIC [15] [µg/mL],MIC [16] [µg/mL],MIC [17] [µg/mL],MIC [18] [µg/mL],MIC [19] [µg/mL],MIC [20] [µg/mL],other results
CCO/N=C(\C(=O)NC1C(=O)N2C(C(=O)[O-])=C(CSc3nc(N)cc(N)[n+]3N)CSC12)c1nsc(N)n1 (centres unmarked) [Compound I-17],2,8,0.13,0.063,0.25,0.016,0.13,0.13,0.016,0.016,0.016,0.5,0.5,≤ 0.008,4,0.5,2,0.5,0.25,0.031,MIC [21]: 0.13 µg/mL; MIC [22]: 0.5 µg/mL; MIC [23]: 0.5 µg/mL; MIC [24]: 0.25 µg/mL; MIC [25]: 32 µg/mL; MIC50 [26]: 0.13 µg/mL; MIC90 [26]: 0.25 µg/mL; MIC50 [27]: 0.25 µg/mL; MIC90 [27]: 0.25 µg/mL; MIC50 [28]: 0.5 µg/mL; MIC90 [28]: 1 µg/mL; MIC50 [29]: 16 µg/mL; MIC90 [29]: 64 µg/mL; MIC50 [30]: 4 µg/mL; MIC90 [30]: 8 µg/mL
C#CCO/N=C(\C(=O)NC1C(=O)N2C(C(=O)[O-])=C(CSc3nc(N)cc(N)[n+]3N)CSC12)c1csc(N)n1 (centres unmarked) [Compound I-18],2,8,0.063,0.063,0.25,≤ 0.008,0.13,0.063,≤ 0.008,0.013,≤ 0.008,0.13,0.13,≤ 0.008,4,0.5,2,0.25,0.13,0.016,MIC [21]: 0.13 µg/mL; MIC [22]: 0.25 µg/mL; MIC [23]: 0.25 µg/mL; MIC [24]: 0.063 µg/mL; MIC [25]: 32 µg/mL; MIC50 [26]: 0.13 µg/mL; MIC90 [26]: 0.25 µg/mL; MIC [27]: 0.13 µg/mL; MIC50 [27]: 0.13 µg/mL; MIC90 [27]: 0.13 µg/mL; MIC50 [28]: 0.25 µg/mL; MIC90 [28]: 0.25 µg/mL; MIC50 [29]: 128 µg/mL; MIC90 [29]: > 128 µg/mL; MIC50 [30]: 4 µg/mL; MIC90 [30]: 8 µg/mL
